Reference: publication PMC3364162 (Journal of Medicinal Chemistry, 2012)

T1: SRC2-2 coactivator peptide SRC2-2 (Homo sapiens, UniProt Q15596)
T1 chain: KHKILHRLLQDSS

B1: Vitamin D receptor (protein)
chain: MEAMAASTSLPDPGDFDRNVPRICGVCGDRATGFHFNAMTCEGCKGFFRRSMKRKALFTCPFNGDCRITKDNRRHCQACRLKRCVDIGMMKEFILTDEEVQRKREMILKRKEEEALKDSLRPKLSEEQQRIIAILLDAHHKTYDPTYSDFCQFRPPVRVNDGGGSHPSRPNSRHTPSFSGDSSSSCSDHCITSSDMMDSSSFSNLDLSEEDSDDPSVTLELSQLSMLPHLADLVSYSIQKVIGFAKMIPGFRDLTSEDQIVLLKSSAIEVIMLRSNESFTMDDMSWTCGNQDYKYRVSDVTKAGHSLELIEPLIKFQVGLKKLNLHEEEHVLLMAICIVSPDRPGVQDAALIEAIQDRLSNTLQTYIRCRHPPPGSHLLYAKMIQKLADLRSLNEEHSKQYRCLSFQPECSMKLTPLVLEVFGNEIS

Target: T1, SRC2-2 coactivator peptide SRC2-2
Experiment: not given
Conditions: not given

With B1 the Kd was 1700 nM.

Tested on: not listed separately
Experiment: in vitro
Conditions: PAMPA, pH 7.4

Going from `O=Cc1nc2ccccc2n1Cc1ccc2ccccc2c1` [compound 24] to `O=Cc1nc2ccccc2n1Cc1ccc(Cl)cc1Cl` [compound 25], the Papp falls from 0.513 ×10⁻⁶ cm/s to 0.302 ×10⁻⁶ cm/s (1.7-fold).

Compared with `CCCCNC(=O)Cn1sc2nc(C)cc(C)c2c1=O` [compound 28], `Cc1c(C=O)c(C(=O)O)c(C)n1Cc1ccc(Cl)cc1` [compound 23] is 32-fold lower in Papp: 0.166 ×10⁻⁶ cm/s for the first, 0.00525 ×10⁻⁶ cm/s for the second.

`COC(=O)c1ccc2c(c1)C(C)(C)C(/C=C/c1ccc(OC)cc1)=[N+]2C` [compound 1] and `COC(=O)c1ccc(/C=C/C2=[N+](C)c3ccc(OC)cc3C2(C)C)cc1` [compound 4] are within 1.5-fold of each other in Papp: 0.0138 ×10⁻⁶ cm/s for the first, 0.0117 ×10⁻⁶ cm/s for the second.

Going from `COC(=O)c1ccc2c(c1)C(C)(C)C(/C=C/c1ccc(O)cc1)=[N+]2C` [compound 5] to `CCOc1ccc(/C=C/C2=[N+](C)c3ccc(C(=O)OC)cc3C2(C)C)cc1` [compound 3], the Papp falls from 0.02 ×10⁻⁶ cm/s to 0.00603 ×10⁻⁶ cm/s (3.3-fold).

First: COc1ccc(/C=C/C2=[N+](C)c3ccc(OC)cc3C2(C)C)cc1 [compound 2]
Second: COc1ccc(OC)c(S(=O)(=O)ON2C(=O)c3ccccc3C2=O)c1 [compound 21]
The Papp of the first is 19-fold higher: 0.282 ×10⁻⁶ cm/s for the first, 0.0145 ×10⁻⁶ cm/s for the second.

Compared with `CC(C)CS(=O)(=O)c1oc(-c2cccs2)nc1S(=O)(=O)c1ccc(F)cc1` [compound 9], `CCCS(=O)(=O)c1oc(-c2cccs2)nc1S(=O)(=O)c1ccc(F)cc1` [compound 7] is 1.5-fold higher in Papp: 0.166 ×10⁻⁶ cm/s for the first, 0.251 ×10⁻⁶ cm/s for the second.

First: Cc1ccc(S(=O)(=O)ON2C(=O)c3ccccc3C2=O)cc1 [compound 20]
Second: CCc1ccc(S(=O)(=O)ON2C(=O)c3ccccc3C2=O)cc1 [compound 22]
The Papp of the first is 7.6-fold lower: 0.00195 ×10⁻⁶ cm/s for the first, 0.0148 ×10⁻⁶ cm/s for the second.

Compared with `Cc1[nH]c2ccccc2c1C(Nc1ccccc1)c1ccc(CCCO)cc1` (stereo not shown) [30i], `Cc1cccc(N2COc3ccc4ccccc4c3C2)c1` [compound 29] is 7.6-fold higher in Papp: 0.148 ×10⁻⁶ cm/s for the first, 1.12 ×10⁻⁶ cm/s for the second.

First: CC(C)S(=O)(=O)c1oc(-c2cccs2)nc1S(=O)(=O)c1ccccc1 [compound 10]
Second: CCS(=O)(=O)c1oc(-c2cccs2)nc1S(=O)(=O)c1ccccc1 [compound 8]
The Papp of the first is 2-fold higher: 0.437 ×10⁻⁶ cm/s for the first, 0.214 ×10⁻⁶ cm/s for the second.

Compared with `COCC(=O)Oc1c(Sc2ccc(Cl)cc2)c(C)nn1-c1ccccc1` [compound 26], `Nc1nc2ccc(S(=O)(=O)N3CCCCC3)cc2s1` [compound 27] is 1.6-fold higher in Papp: 0.0331 ×10⁻⁶ cm/s for the first, 0.0525 ×10⁻⁶ cm/s for the second.

Tested on: HEK293T cells
Experiment: Toxicity by CellTiter-Glo
Type: cell-based, human
Conditions: Conc. 62.5 μM

First: Cc1[nH]c2ccccc2c1C(Nc1ccccn1)c1cccc(Cl)c1 (stereo not shown) [compound 18]
Second: COc1cccc(C(Nc2ccccn2)c2c(C)[nH]c3ccccc23)c1 (stereo not shown) [compound 13]
The “Toxicity (%)” value of the first is higher: 100% for the first, 60% for the second.

Going from `COc1ccc(C(Nc2ccccn2)c2c(C)[nH]c3ccccc23)cc1` (stereo not shown) [compound 11] to `Cc1ccc(C(Nc2ccccn2)c2c(C)[nH]c3ccccc23)cc1` (stereo not shown) [compound 12], the “Toxicity (%)” value falls from 100% to 90%.

`Cc1ccc(S(=O)(=O)ON2C(=O)c3ccccc3C2=O)cc1` [compound 20] and `COc1ccc(OC)c(S(=O)(=O)ON2C(=O)c3ccccc3C2=O)c1` [compound 21] are the same in “Toxicity (%)” value: 50% for the first, 50% for the second.

First: Cc1c(C=O)c(C(=O)O)c(C)n1Cc1ccc(Cl)cc1 [compound 23]
Second: COCC(=O)Oc1c(Sc2ccc(Cl)cc2)c(C)nn1-c1ccccc1 [compound 26]
The “Toxicity (%)” value of the first is higher: 20% for the first, 0% for the second.

With `Cc1[nH]c2ccccc2c1C(Nc1ccccn1)c1ccc(F)cc1` (stereo not shown) [compound 16] the “Toxicity (%)” value was 100%.

Tested on: DU145 cells
Experiment: Cytotoxicity in DU145 cells
Type: cell-based, human
Conditions: not given

In the case of `Cc1[nH]c2ccccc2c1C(Nc1ccc(Cl)cc1)c1ccccc1Cl` (stereo not shown) [31b], the “Concentration above which increased cytotoxicity was observed” value is reported as “higher than 20 μM”.
